Laboratory results: the NIST ThermoML archive (doi:10.1016/j.jct.2015.12.032)
± gives the expanded uncertainty stated by the source.

Legend:
[1] = Molar enthalpy of transition or fusion; settings: Crystal; DSC
[2] = for mass density: 298.15 K, 101.33 kPa, Liquid, Pycnometric method

Row | Molar enthalpy of transition or fusion [1] [kcal/mol] | Normal melting temperature ([2]; Crystal, DTA) [°C] | mass density [2] [kg/m3] | SMILES
1 | 3.05 ± 0.0932 | 103.20 ± 1.1 |  | CNC(=O)NC [1,3-dimethylurea]
2 |  |  | 777 ± 1.4 | CC#N [acetonitrile]
3 |  |  | 802.4 ± 1.5 | CCC(C)O (stereo not drawn) [butan-2-ol]
4 |  |  | 894.4 ± 1.6 | CCOC(C)=O [ethyl acetate]
5 |  |  | 781.2 ± 1.4 | CC(C)O [propan-2-ol]

Row | SMILES | Molar enthalpy of transition or fusion [1] [kcal/mol] | Normal melting temperature ([2]; Crystal, DTA) [°C] | mass density [2] [kg/m3]
6 | CC(C)=O [acetone] |  |  | 785.1 ± 1.4
7 | CCCCOC(C)=O [butyl ethanoate] |  |  | 875.8 ± 1.6
